Experimental data taken from patent US20220380477A1 (priority 2019, published 2022).

Tested on: SNU-C5/WT
Conditions: mouse, in vivo

## O=c1[nH]cc(F)c(=O)[nH]1 [5FU, 5-fluorouracil]
  cell proliferation of tumor cells (Ki67 fluorescence staining): not able to decrease the proliferative ability of tumor cells
  tumor formation (tumor volume): does not effectively inhibit tumor formation
